Some test systems named below: A549; EKVX; HCC 2998; HCT-15; HOP-92; M14; MOLT-4; Malme-3M; NCI-H23; NCI-H460; SK-MEL-2; SK-OV-3; SNB-19; SNB-75; SR; SW-620; UACC-62; CAKI-1; T47D.
Holding throughout (test): NCI-60 cell line screen, 48 h

Structures are written as SMILES.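 48-hour exposure; five concentrations; linearly interpolated endpoints. Abbreviation: GI50, concentration required for 50% inhibition of growth.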 The source made the active and inactive calls. No stated cut-off is given here; in the data, active = GI50 up to about 1.1 µM and inactive = higher.

Consider `CCCC(=O)NC1CCc2cc(OC)c(OC)c(OC)c2-c2ccc(OC)c(=O)cc21` (stereo not given), for which the GI50 in the assay on A549 is 0.00538 µM (active); with EKVX, 0.000577 µM (active); in the assay with HCC 2998, 0.00186 µM (active); in the assay on HCT-15, 0.00637 µM; in the assay with HOP-92 it was 0.447 µM (active); in the assay on M14 it was 0.000817 µM (active). In addition, the GI50 with MOLT-4 was 0.000493 µM (active); in the assay with Malme-3M it was 0.000764 µM (active); in the assay with NCI-H23, 0.000715 µM (active); in the assay on NCI-H460 it was 0.000644 µM (active); with SK-MEL-2, 0.01 µM (active); in the assay on SK-OV-3, 0.00454 µM (active). The GI50 in the assay with SNB-19 was 0.000519 µM (active); with SNB-75, 1.82 µM (inactive); in the assay with SR it was 0.114 µM (active); in the assay with SW-620 it was 0.000481 µM (active); with UACC-62, 0.000303 µM (active).
`O=c1oc2ccccc2cc1-c1cc2ccccn2c1`: the GI50 in the assay with A549 is > 100 µM (inactive); in the assay with CAKI-1 it was > 100 µM (inactive); in the assay on EKVX, > 100 µM (inactive); with HCT-15, above 100 µM; in the assay on HOP-92 it was > 100 µM (inactive); in the assay on M14, > 100 µM (inactive). Moreover, the GI50 in the assay on MOLT-4, in the assay with NCI-H23, in the assay on NCI-H460, with SK-MEL-2, with SK-OV-3 and in the assay on SNB-19 was > 100 µM (inactive) throughout. Further, the GI50 in the assay on SNB-75, with SW-620 and with UACC-62 was > 100 µM (inactive) throughout.
On to `COc1ccc2c(c1)CC1NC2Cc2ccccc21` (stereo not given), for which the GI50 was > 100 µM (inactive) in the assay on A549; > 100 µM (inactive) with CAKI-1; > 100 µM (inactive) with EKVX; > 100 µM (inactive) in the assay on HCC 2998; above 100 µM in the assay with HCT-15; > 100 µM (inactive) in the assay with M14. Moreover, the GI50 with MOLT-4, in the assay on Malme-3M, with NCI-H23, in the assay on NCI-H460, in the assay on SK-MEL-2 and in the assay with SK-OV-3 was > 100 µM (inactive) throughout. Moreover, the GI50 in the assay with SNB-75, in the assay on SW-620 and in the assay on UACC-62 was > 100 µM (inactive) each time.
Turning to `CCOC(=O)c1cc(/C=C/C(C)=C/C(=O)OC)oc1C`, the GI50 was > 100 µM (inactive) in the assay with A549; > 100 µM (inactive) in the assay with CAKI-1; > 100 µM (inactive) with EKVX; above 100 µM with HCT-15; > 100 µM (inactive) in the assay with HOP-92; > 100 µM (inactive) in the assay with M14. Also, the GI50 in the assay with MOLT-4, in the assay with Malme-3M, in the assay with NCI-H23, in the assay with NCI-H460, in the assay with SK-MEL-2 and with SK-OV-3 was > 100 µM (inactive) throughout. Moreover, the GI50 with SNB-19, in the assay with SNB-75, in the assay with SR, with SW-620 and in the assay with UACC-62 was > 100 µM (inactive) each time.
Consider `O=c1cn[nH]c(=S)n1/N=C/c1c[nH]c2ccccc12`, for which the GI50 is > 100 µM (inactive) in the assay on A549; > 100 µM (inactive) in the assay on CAKI-1; > 100 µM (inactive) in the assay on EKVX; > 100 µM (inactive) in the assay on HCC 2998; 31.4 µM with HCT-15; > 100 µM (inactive) with M14. Besides, the GI50 was 37.6 µM (inactive) in the assay on MOLT-4; > 100 µM (inactive) in the assay on Malme-3M; > 100 µM (inactive) with NCI-H460; > 100 µM (inactive) with SK-MEL-2; > 100 µM (inactive) in the assay on SK-OV-3; > 100 µM (inactive) in the assay with SNB-19. The GI50 in the assay with SR was 45.3 µM (inactive); in the assay with SW-620, 45.3 µM (inactive); in the assay with UACC-62, 78.7 µM (inactive).
Take `Sc1nnc(CCCCCCCCc2nnc(S)o2)o1`: the GI50 with A549 was > 100 µM (inactive); in the assay with CAKI-1 it was > 100 µM (inactive); in the assay with EKVX, > 100 µM (inactive); in the assay with HCT-15, above 100 µM; with M14, > 100 µM (inactive); in the assay on MOLT-4, > 100 µM (inactive). For the same molecule, the GI50 with NCI-H23, with NCI-H460, in the assay with SK-MEL-2, in the assay on SK-OV-3, with SNB-19 and with SNB-75 was > 100 µM (inactive) each time. Moreover, the GI50 with SW-620 was > 100 µM (inactive).
Take `COc1cc(Cn2c3c(c4cc(O)ccc42)Cc2ccccc2C3=O)cc(OC)c1`: the GI50 in the assay with A549 was 74 µM (inactive); in the assay with CAKI-1, 32.7 µM (inactive); with HCT-15, 33.9 µM; with M14 it was 68.1 µM (inactive); in the assay on MOLT-4, 28.9 µM (inactive); in the assay on Malme-3M, 42.1 µM (inactive). Moreover, the GI50 in the assay on NCI-H23 was > 100 µM (inactive); with NCI-H460, 62.1 µM (inactive); with SK-MEL-2, > 100 µM (inactive); in the assay with SK-OV-3, > 100 µM (inactive); in the assay with SNB-19, > 100 µM (inactive); in the assay with SNB-75, 15.5 µM (inactive). Besides, the GI50 is 6.46 µM (inactive) in the assay on SR, 54.5 µM (inactive) in the assay on SW-620 and 38.2 µM (inactive) with UACC-62.
Regarding `CC(C)(C)OC(=O)NCC(CNC(=O)OC(C)(C)C)c1nc(C(N)=O)cs1`, the GI50 is > 100 µM (inactive) in the assay with A549; > 100 µM (inactive) in the assay on CAKI-1; > 100 µM (inactive) in the assay with EKVX; > 100 µM (inactive) in the assay with HCC 2998; above 100 µM with HCT-15; > 100 µM (inactive) in the assay on HOP-92. The GI50 in the assay on M14, with MOLT-4, in the assay on Malme-3M, with NCI-H23, with NCI-H460 and in the assay on SK-MEL-2 was > 100 µM (inactive) each time. In addition, the GI50 is > 100 µM (inactive) in the assay on SK-OV-3; > 100 µM (inactive) in the assay with SNB-19; 0.818 µM (active) in the assay on SNB-75; > 100 µM (inactive) in the assay with SR; > 100 µM (inactive) with SW-620; > 100 µM (inactive) with UACC-62.
In the case of `Cc1ccc(S(=O)(=O)OCCC2CN(C(=O)OCc3ccccc3)C(C)(C)O2)cc1` (stereo not given), the GI50 is 9.59 µM (inactive) in the assay with A549; 60.1 µM (inactive) in the assay with CAKI-1; 18.3 µM (inactive) with EKVX; 6.07 µM (inactive) with HCC 2998; 3.66 µM with HCT-15; 62.2 µM (inactive) in the assay on HOP-92. For the same molecule, the GI50 is 7.38 µM (inactive) in the assay with M14; 2.81 µM (inactive) in the assay on MOLT-4; 8.2 µM (inactive) in the assay with Malme-3M; 2.96 µM (inactive) with NCI-H23; 3.47 µM (inactive) in the assay on NCI-H460; 17.7 µM (inactive) in the assay with SK-MEL-2. Besides, the GI50 is > 100 µM (inactive) with SK-OV-3; 3.83 µM (inactive) with SNB-19; 4.47 µM (inactive) in the assay on SR; 14.3 µM (inactive) with SW-620; 10.2 µM (inactive) in the assay on UACC-62.
Regarding `Brc1cccc(C2SCc3nc4ccccc4n32)c1` (stereo not given), the GI50 is 32.7 µM (inactive) in the assay on A549; 30.2 µM (inactive) with CAKI-1; 18.7 µM (inactive) with EKVX; 15.2 µM with HCT-15; 11.1 µM (inactive) in the assay on HOP-92; 22.5 µM (inactive) in the assay with M14. Also, the GI50 is 22.6 µM (inactive) with MOLT-4; 24 µM (inactive) with Malme-3M; 13.9 µM (inactive) with NCI-H23; 23.6 µM (inactive) with NCI-H460; 21.6 µM (inactive) with SK-OV-3; 0.0533 µM (active) with SNB-75. Further, the GI50 in the assay on SR was 15.7 µM (inactive); with SW-620 it was 31.8 µM (inactive); with UACC-62, 12.9 µM (inactive).
With `CCCc1c2c([nH]c(=O)c1C)C(=O)c1[nH]c(=O)c(C)c(CCC)c1C2=O`, the GI50 with A549 was 23.7 µM (inactive); with HCC 2998 it was 38.4 µM (inactive); in the assay with HCT-15 it was 11.2 µM; in the assay on HOP-92, 41 µM (inactive); with M14, 1.66 µM (inactive); with MOLT-4, 3.93 µM (inactive). The GI50 in the assay on Malme-3M is 3.73 µM (inactive); in the assay on NCI-H23, 23.2 µM (inactive); in the assay on NCI-H460, 14.5 µM (inactive); in the assay with SNB-19, 18.7 µM (inactive); with SNB-75, 22.6 µM (inactive); in the assay on SR it was 5.56 µM (inactive). Also, the GI50 in the assay on SW-620 is 4.78 µM (inactive).
For the molecule `O=c1[nH]nc(Cc2ccccc2)n1/N=C/c1ccc(/C=N/n2c(Cc3ccccc3)n[nH]c2=O)cc1`, the GI50 in the assay on A549 is > 100 µM (inactive); in the assay with CAKI-1, > 100 µM (inactive); in the assay on EKVX, > 100 µM (inactive); in the assay with HCT-15, above 100 µM; in the assay with M14, > 100 µM (inactive); with MOLT-4, 19.4 µM (inactive). For the same molecule, the GI50 in the assay on Malme-3M, in the assay with NCI-H23, with NCI-H460, in the assay with SK-MEL-2, with SNB-19 and in the assay on SW-620 was > 100 µM (inactive) in each case. Moreover, the GI50 with T47D and in the assay with UACC-62 was > 100 µM (inactive) throughout.
For `CO[C@H](C(=O)O[C@H]1C(=O)N2CC[C@@H]3CCC[C@H]1C32C)c1ccccc1` (stereo not given in full), the GI50 in the assay with A549 was > 100 µM (inactive); with CAKI-1, > 100 µM (inactive); in the assay with EKVX it was > 100 µM (inactive); with HCC 2998 it was 60.8 µM (inactive); with HCT-15, above 10 µM; in the assay on M14, > 100 µM (inactive). Further, the GI50 with MOLT-4, in the assay on Malme-3M, in the assay on NCI-H23, in the assay on NCI-H460, in the assay with SK-MEL-2 and in the assay with SK-OV-3 was > 100 µM (inactive) throughout. The GI50 with SNB-19, in the assay on SR, with SW-620 and in the assay on UACC-62 was > 100 µM (inactive) throughout.

The values above are taken from ChEMBL document CHEMBL1201862, “PubChem BioAssay data set” (2004).
